Reference: EP0307172A2, “Improvements in or relating to specific 5-HT3 antagonists” (ELI LILLY AND COMPANY, priority 1987, dated 1989)

Assays:
5-HT₃ receptor = target: T1, 5-HT₃ receptor (Rattus norvegicus, UniProt P35563); assay: Inhibition of serotonin-induced Von Bezold-Jarisch reflex in rats; type: in vivo; settings: 15 minutes prior to 5-HT; for inhibition at 0.01 mg/kg / inhibition at 0.003 mg/kg / inhibition at 0.001 mg/kg / inhibition at 0.03 mg/kg: rat, iv, read-out: Percent Inhibition of Reflex in Rats; for inhibition at 0.001 mg/kg: 0.001 mg/kg I.V.; for inhibition at 0.03 mg/kg: 0.03 mg/kg I.V.
T1 construct: from tissue
T1 sequence (P35563 24-483): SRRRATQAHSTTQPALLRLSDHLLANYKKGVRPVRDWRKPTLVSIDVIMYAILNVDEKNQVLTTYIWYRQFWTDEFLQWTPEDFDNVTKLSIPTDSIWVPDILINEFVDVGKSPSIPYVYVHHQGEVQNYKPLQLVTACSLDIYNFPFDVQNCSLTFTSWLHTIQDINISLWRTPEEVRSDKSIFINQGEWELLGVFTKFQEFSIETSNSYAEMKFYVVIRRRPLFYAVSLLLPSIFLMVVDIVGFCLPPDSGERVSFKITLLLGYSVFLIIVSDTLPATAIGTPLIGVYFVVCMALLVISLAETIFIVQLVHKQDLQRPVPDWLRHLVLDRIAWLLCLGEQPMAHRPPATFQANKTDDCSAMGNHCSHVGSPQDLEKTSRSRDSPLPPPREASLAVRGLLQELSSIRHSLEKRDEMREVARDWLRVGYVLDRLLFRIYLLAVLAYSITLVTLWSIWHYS
Description: The compounds of Formula I of this invention are long-acting, orally effective specific 5-HT₃ receptor antagonists, rendering them useful for the treatment of migraine. Because of this mechanism, the compounds of this invention should also be useful for treating emesis, motion sickness, ischemic bowel disease, diabetic gastric paresis, relaxation of the gastro-intestinal tract for instrumentation, other gastro-intestinal pain following surgery, obstetrics or as in abdominal cramps, and for treating CNS disorders such as schizophrenia and anxiety. The ability of these compounds to antagonize the effects of 5-HT was assessed by their inhibition of the Von Bezold-Jarisch reflex induced by 5-HT injected intravenously into the rat (See Paintal, Physiol. Rev., 53, 159 (1973)). When administered by the intravenous route 15 minutes prior to the administration of 5-HT, the compounds of this invention were effective in inhibiting the serotonin-induced Bezold-Jarisch reflex as summarized in Table 1 below: Table 1

cisplatin-induced emesis = assay: Blockade of cisplatin-induced emesis in dogs; type: in vivo; settings: Canis lupus familiaris, iv, read-out: ED₅₀
Description: These compounds may also be used as antiemetic agents. […] Since 5HT₃ receptors are prevalent in the GI tract, other potential uses include other diseases of the gastro- intestinal tract, such as ischemic bowel, esophageal reflux, etc.

| inhibition at 0.01 mg/kg (5-HT₃ receptor; 0.01 mg/kg I.V.) | inhibition at 0.003 mg/kg (5-HT₃ receptor; 0.003 mg/kg I.V.) | SMILES | also measured |
| --- | --- | --- | --- |
| 0.1% | – | CN1[C@@H]2CC[C@H]1C[C@@H](NC(=O)c1cccc3c1SC(C)(C)C3)C2 [Example 16, Endo-2,3-dihydro-2,2-dimethyl-N-(8-methyl-8-azabicyclo[3.2.1]oct-3-yl)benzo[b]thiophene-7-carboxamide (Z)-2-butenedioate] | – |
| 2% | – | CN1[C@@H]2CC[C@H]1C[C@H](OC(=O)c1cc(Cl)cc3c1OC(C)(C)C3)C2 [Example 26, Exo-2,2-dimethyl-5-chloro-2,3-dihydro-7-benzofurancarboxylic acid, 8-methyl-8-azabicyclo[3.2.1]oct-3-yl ester (Z)-2-butenedioate] | – |
| 16% | – | CN1[C@@H]2CC[C@H]1C[C@@H](NC(=O)c1ccc3c(c1)CC(C)(C)O3)C2 [Example 20, Endo-2,3-dihydro-2,2-dimethyl-N-(8-methyl-8-azabicyclo[3.2.1]oct-3-yl)-5-benzofurancarboxamide (Z)-2-butenedioate] | – |
| – | -7% | COc1ccc(C(=O)N[C@H]2C[C@H]3CC[C@@H](C2)N3C)c2c1CC(C)(C)O2 [Example 52, Endo-2,3-dihydro-4-methoxy-2,2-dimethyl-N-(8-methyl-8-azabicyclo[3.2.1]oct-3-yl)-7-benzofurancarboxamide (Z)-2-butenedioate] | – |
| 4% | – | Cc1cc2c(c(C(=O)O[C@H]3C[C@H]4CC[C@@H](C3)N4C)c1)OC(C)(C)C2 [Example 37, Endo-2,3-dihydro-2,2,5-trimethyl-7-benzofurancarboxylic acid, 8-methyl-8-azabicyclo[3.2.1]oct-3-yl ester (Z)-2-butenedioate] | – |
| 1.2% | – | CN1[C@@H]2CC[C@H]1C[C@@H](NC(=O)c1ccc(Cl)c3c1OC(C)(C)C3)C2 [Example 18, Endo-4-chloro-2,3-dihydro-2,2-dimethyl-N-(8-methyl-8-azabicyclo[3.2.1]oct-3-yl)-7-benzofurancarboxamide (Z)-2-butenedioate] | – |
| – | 90% | CN1[C@@H]2CC[C@H]1C[C@@H](NC(=O)c1cc(Cl)cc3c1OC(C)(C)C3)C2 [Example 19, Endo-5-chloro-2,3-dihydro-2,2-dimethyl-N-(8-methyl-8-azabicyclo[3.2.1.]oct-3-yl)-7-benzofurancarboxamide (Z)-2-butenedioate] | ED50 (cisplatin-induced emesis): 0.0356 mg/kg; inhibition at 0.001 mg/kg (5-HT₃ receptor): 66% |
| – | – | CN1C2CCC1CC(NC(=O)c1cc(Cl)cc3c1OC(C)(C)C3)C2.O=C(O)/C=C\C(=O)O (stereo not drawn) [Example 30, Exo-2,2-dimethyl-5-chloro-2,3-dihydro-N-(8-methyl-8-azabicyclo[3.2.1]oct-3-yl)-7-benzofurancarboxamide (Z)-2-butenedioate] | Percent Inhibition of Reflex in Rats (5-HT₃ receptor; 0.003 mg/kg I.V.): 26%; Percent Inhibition of Reflex in Rats (5-HT₃ receptor; 0.01 mg/kg I.V.): 67% |
| 26% | – | CC1Cc2cccc(C(=O)N[C@@H]3C[C@H]4CC[C@@H](C3)N4C)c2O1 (mixture of isomers) [Example 38, dl-exo-2,3-dihydro-2-methyl-N-(8-methyl-8-azabicyclo[3.2.1]oct-3-yl)-7-benzofurancarboxamide (Z)-2-butenedioate] | inhibition at 0.03 mg/kg (5-HT₃ receptor): 51% |
| 53% | -2% | CN1[C@@H]2CC[C@H]1C[C@H](NC(=O)c1cccc3c1OC(C)(C)C3)C2 [Example 39, Exo-2,3-dihydro-2,2-dimethyl-N-(8-methyl-8-azabicyclo[3.2.1]oct-3-yl)-7-benzofurancarboxamide (Z)-2-butenedioate] | inhibition at 0.03 mg/kg (5-HT₃ receptor): 82% |
| 20% | – | COc1cc2c(c(C(=O)N[C@H]3C[C@H]4CC[C@@H](C3)N4C)c1)OC(C)C2 (mixture of isomers) [Example 27, dl-endo-2,3-dihydro-5-methoxy-2-methyl-N-(8-methyl-8-azabicyclo[3.2.1]oct-3-yl)-7-benzofurancarboxamide (Z)-2-butenedioate] | – |
| 83% | 19% | CN1[C@@H]2CC[C@H]1C[C@@H](OC(=O)c1cc(Cl)cc3c1OC(C)(C)C3)C2 [Example 25, Endo-5-chloro-2,3-dihydro-2,2-dimethyl-7-benzofurancarboxylic acid, 8-methyl-8-azabicyclo[3.2.1]oct-3-yl ester (Z)-2-butenedioate] | inhibition at 0.001 mg/kg (5-HT₃ receptor): 10% |

| SMILES | inhibition at 0.01 mg/kg (5-HT₃ receptor; 0.01 mg/kg I.V.) | inhibition at 0.003 mg/kg (5-HT₃ receptor; 0.003 mg/kg I.V.) | also measured |
| --- | --- | --- | --- |
| CN1C2CCC1CC(NC(=O)c1cc(F)cc3c1OC(C)(C)C3)C2 (stereo not drawn) [Example 58, 5-Fluoro-2,3-dihydro-2,2-dimethyl-N-(8-methyl-8-azabicyclo[3.2.1]oct-3-yl)-7-benzofurancarboxamide (Z)-2-butenedioate] | 71% | – | – |
